In patent US8304238B2, “Cell culture medium and immobilized preparation of cell adhesion protein or peptide” (Nat'l Institute for Environmental Studies, priority 2003, dated 2012):
Where no end group is shown, it is not given here. [ ]: non-standard residue; d: D form. Nle = CCCC[C@H](N)C(=O)O

What was measured:
Format in all cases: cell-based
[1] = system: alveolar type II epithelial cells (T2 cells); assay: Adhesion of T2 cells to pseudomatrix adsorbed/immobilized from DMEM and competitive inhibition by free peptides; conditions: for Cell adhesion ability of immobilized pseudomatrix compared with directly coated FN: 1-10 μg/ml in DMEM, 1-day serum-free culture, excluding 1 μg/ml of MBAC-AG73; for Competitive inhibition of cell adhesion to pseudomatrix by free cell adhesion peptide: pseudomatrix 1-10 μg/ml in DMEM
Protocol: 200 mg each of hydrophobic binding-adsorptive polymer, MBAC, MAST or MMAC were dispersed into water, and 1 N NaOH solution was added little by little to dissolve them completely. 50 mg of WSC (1-ethyl-3-(3-dimethylamino propyl)carbodiimide, hydrochloride) was added to the resulting solution, and the reaction was conducted for 2 hours. Subsequently, 20 mg of peptide was added, and the reaction was continued with stirring for 2 hours at room temperature. After the reaction was finished, the reactant was subjected to dialysis with water to remove alkaline and low molecules, and then freeze-dried to prepare a pseudomatrix of interest.
Each pseudomatrix prepared in Example 13 to which cell adhesion peptide was bound (MBAC-peptide) was diluted in DMEM medium to the concentration of 1-10 μg/ml, and the resultant solution was poured into a 96-well by 100 μl each, and left still overnight in a CO2 incubator to be adsorbed and immobilized on the wells. Non-adsorbed MBAC-peptides were removed by rinsing well with DMEM medium. Next, T2 cells suspended at the concentration of 6×10^5 cells/ml were seeded in the serum-free DMEM by 100 μl each. After 1-day serum-free culture, T2 cells were fixed with 100 μl of methanol for 5 minutes, and stained with 50 μl of 0.4% crystal violet for 30 minutes. Excessive staining was washed with water, and the number of adhering cells was counted based on the absorbance of cytoplasm (A595).
In the same manner as in Example 14, each pseudomatrix prepared in Example 13 to which cell adhesion peptide was bound (MAST-peptide) was adsorbed and immobilized on a 96-well, and T2 cells were seeded and cultured thereon.

[2] = system: alveolar type II epithelial cells (T2 cells); assay: Adhesion of T2 cells to pseudomatrices dissolved in 50% ethanol and air-dried/immobilized, and competitive inhibition by free peptide; conditions: for Competitive inhibition of cell adhesion by free peptide: 50% ethanol air-dried pseudomatrix, 0.25 mg/ml free AG73 or FIB-1; for Adhesion of T2 cells to pseudomatrix compared with coated FN: 0.1-1.0 μg/well, 24 hours serum-free; for Free GRGDSP concentration at which cell adhesion was almost completely inhibited: free peptide 0.25-4.0 mg/ml tested
Protocol: 50 μl of 2-20 μg/ml MAST-GRGDSP (Gly-Arg-Gly-Asp-Ser-Pro) (SEQ ID NO: 22) and MMAC-GRGDSP (SEQ ID NO: 22) dissolved in 50% ethanol were poured into wells, and air-dried/immobilized. Next, the wells to which MAST-GRGDSP (SEQ ID NO: 22) and MMAC-GRGDSP (SEQ ID NO: 22) (0.1-1.0 μg/well) were coated were rinsed with the serum-free DMEM medium. T2 cells suspended in the medium at the concentration of 6×10^4 cells/100 μl were seeded, and cultured in a CO2 incubator at 37° C. for 24 hours. Then, the cells were fixed with methanol, stained, and measured its absorbance according to the method in Example 7. A culture wherein FN was coated as a standard material was conducted simultaneously. The cell adhesion on FN was shown as a standard (100%).
In the same manner as in Example 18, MAST-GRGDSP (SEQ ID NO: 22) was dissolved in 50% ethanol, air-dried/immobilized on wells, and T2 cells were seeded/cultured thereon. Separately, just before the cells were seeded, 0.25-4.0 mg/ml of free GRGDSP (SEQ ID NO: 22) peptide was added to the cell suspension, and the culture and the subsequent measurement of absorbance were conducted in the same manner as described above. […] Further, when the applied amount of MAST-GRGDSP (SEQ ID NO: 22) was decreased, the immobilized amount of GRGDSP (SEQ ID NO: 22) decreased, and the competitive inhibition by free GRGDSP (SEQ ID NO: 22) peptide worked more effectively.
(§1) In the same manner as in Example 18, MMAC-GRGDSP (SEQ ID NO: 22) was dissolved in 50% ethanol, air-dried/immobilized on wells, and T2 cells were seeded/cultured thereon. Separately, just before the cells were seeded, 0.25-4.0 mg/ml of free GRGDSP (SEQ ID NO: 22) peptide was added to the cell suspension, and the culture and the subsequent measurement of absorbance were conducted in the same manner as described above.
as §1, with “MBAC/MAST-AG73 and -FIB-1 were” for “MMAC-GRGDSP (SEQ ID NO: 22) was”, “0.25” for “0.25-4.0”, “AG73 or FIB-1” for “GRGDSP (SEQ ID NO: 22)”

[3] = system: alveolar type II epithelial cells (T2 cells); assay: Inhibition of T2 cell adhesion by free peptide different from the immobilized peptide substrate
Protocol: Results obtained by adding the free peptides different from the immobilized peptides when T2 cells were cultured on the immobilized peptide prepared according to the method in Example 7, were shown in FIG. 8.
When adding the free peptides that were the same as the immobilized peptides in the culture medium, the both (free and immobilized) peptides compete for syndecan of T2 cells and as a result, the cell adhesion is inhibited (see Example 7). So far, four types of syndecans are genetically known. Whether these syndecans are commonly owned or accommodated by each peptide, overlapping only by some degrees, otherwise mutually exclusive, was examined herein.

[4] = system: alveolar type II epithelial cells (T2 cells); assay: Binding strength (affinity) of immobilized LN peptides to T2 cells relative to immobilized FIB-1 (mixed immobilization, free FIB-1 competition); design: key to Binding strength to T2 cells, Comprehensive evaluation: AA: extremely strongly binding/adhering; A: strongly binding/adhering; B: intermediately binding/adhering (as the same degree as FIB-1 peptide); C: more weakly binding/adhering than FIB-1 peptide
Protocol: Therefore, the amount of FIB-1 peptide was set at 0.25 mg/ml, and AG73 peptide was mixed therewith, while changing its concentration ratio, from 1/1.250 of FIB-1 in an amount which is 0.20 μg/ml, to ½ of FIB-1 in an amount which is 0.125 mg/ml, and the mixture was immobilized on a well wherein a hydrophobic binding-adsorptive polymer MMAC was coated. The amount of cell adhesion in the case where T2 cells were cultured under a serum-free condition for 1 day on the immobilized peptides is shown in FIG. 9, in comparison with the case where the culture was conducted on the immobilized FIB-1, which was set at 100%.
However, in a case that the ratio of FIB-1:AG73 increased to 1:0.02, because T2 cells already transited to be adherent through the immobilized AG73 peptide, free FIB-1 peptide could no longer inhibit the cell adhesion. […] Likewise, with regard to A3G72 and A4G82 peptides, because the mixing ratio at the transitional midpoint=0.1, their binding strength to T2 cells is 10 times as much as that of FIB-1.
The method used in FIGS. 8 and 9 is extremely effective as a convenient method by which a relative order can be measured concerning to the binding strength (affinity) of cell adhesion peptides and the strength of cell adhesion can be considered quantitatively.
In Table 1, the classification is shown based on the results of the affinity (bonding/adhesion strength) between FIB-1 peptide containing RGD amino acid sequence of FN molecule, a binding site to integrin, and T2 cells: laminin α-chain G-domain peptides are classified into class AA, extremely strong binding/adhesion; class A, strong adhesion; class B, adhesion as the same degree as FIB-1; and class C, binding weaker than the described above.

[5] = system: alveolar type II epithelial cells (T2 cells); assay: Inhibition by free cell adhesion peptides of T2 cell adhesion to coated cell adhesion proteins FN, Col I, LN, VN; conditions: free peptide 0.25 mg/ml; serum-free, 1 day
Protocol: Commercially available FN, LN and VN, usually used as cell adhesion proteins at cell culture, were coated to wells at the concentrations of 5 μg/ml, 10 μg/ml and 10 μg/ml, respectively. In case of Col I (collagen type I), Col I at the concentration of 100 μg/ml, dissolved in 1 mM HCl, was poured into a well, left stand still for a while, and then the solution was removed and air-drying was conducted, and rinsed with the medium, before use. Next, 6×10^5 cells/ml of alveolar type II epithelial cells (T2 cells) suspended in the serum-free DMEM medium was seeded by 100 μl each on a 96-well to which the extracellular matrix was coated, and cultured in a CO2 incubator at 37° C. for 1 day. After the culture was finished, the cells were fixed with 100 μl of methanol for 5 minutes, and stained for 30 minutes with 50 μl of 0.4% crystal violet. Excessive staining was washed with water, then the number of cells adhered to FN, Col I, LN and VN, which had been coated to the wells, was counted based on the absorbance of cytoplasm (A595).
On the other hand, among amino acid sequences of various LN molecules, the sequences that induce cell adhesion are known to be present. […] Then, the number of cells was counted in accordance with the method described above.

Substance | Cell adhesion ability of immobilized pseudomatrix compared with directly coated FN [1] | Competitive inhibition of cell adhesion to pseudomatrix by free cell adhesion peptide [1] | Adhesion of T2 cells to pseudomatrix compared with coated FN ([2]; 50% ethanol, air-dried) | also measured
MAST-A4G82X: pseudomatrix: MAST polymer reacted with A4G82X peptide (TLFLAHGRLVF[Nle]; also: peptide reacted with MAST polymer (pseudomatrix)) | the same level of cell adhesion ability as in the case where FN was directly coated | inhibited by free A4G82 peptide | – | –
MAST-AG73: pseudomatrix: MAST polymer reacted with AG73 peptide (RKRLQVQLSIRT) | the same level of cell adhesion ability as in the case where FN was directly coated | competitively inhibited by the free cell adhesion peptide, the degree is lower than the case of MBAC-peptide | similarly to the case where FN was coated | Competitive inhibition of cell adhesion by free peptide [2]: almost completely inhibited
LVLFLNHGHFVA | – | – | – | Inhibition by free peptide of T2 cell adhesion to immobilized AG73 ([3]; AG73 (etc.) immobilized): inhibited the cell adhesion; Inhibition by free peptide of T2 cell adhesion to immobilized FIB-1 ([3]; FIB-1 immobilized): could inhibit; Binding strength to T2 cells, Comprehensive evaluation ([4]; classification relative to FIB-1 peptide): B; Mixing ratio at the transitional midpoint ([4]; peptide:FIB-1 co-immobilized, FIB-1 0.25 mg/ml, loss of inhibition by free FIB-1): about 1; Inhibition of adhesion of T2 cells to FN, Col I, LN and VN by free peptide [5]: inhibited adhesion of T2 cells
MBAC-AG73: pseudomatrix: MBAC polymer reacted with AG73 peptide (RKRLQVQLSIRT) | – | competitively inhibited | similarly to the case where FN was coated | Competitive inhibition of cell adhesion by free peptide [2]: almost completely inhibited
Gly-Arg-Gly-Asp-Ser-Pro (GRGDSP) [reference compound] | – | – | – | Free GRGDSP concentration at which cell adhesion was almost completely inhibited ([2]; adhesion to MAST-GRGDSP): 4.0 mg/mL; Free GRGDSP concentration at which cell adhesion was almost completely inhibited ([2]; adhesion to MMAC-GRGDSP): 1.0 to 4.0 mg/mL
MBAC-A3G72: pseudomatrix: MBAC polymer reacted with A3G72 peptide (KPRLQFSLDIQT) | – | competitively inhibited | – | –
MAST-GRGDSP: pseudomatrix: MAST polymer bound to GRGDSP peptide (also: bound to MAST polymer) | – | – | slightly lower than that of the standard cell adhesion protein FN | Amount of cell adhesion compared with the same peptide bound to MMAC ([2]; 50% ethanol, air-dried, polystyrene wells): larger amount of cell adhesion than that of the same peptide bound to MMAC polymer
MMAC-GRGDSP: pseudomatrix: MMAC polymer bound to GRGDSP peptide (also: bound to MMAC polymer) | – | – | slightly lower than that of the standard cell adhesion protein FN | –
MAST-A3G72: pseudomatrix: MAST polymer reacted with A3G72 peptide (KPRLQFSLDIQT) | the same level of cell adhesion ability as in the case where FN was directly coated | competitively inhibited by the free cell adhesion peptide, the degree is lower than the case of MBAC-peptide | – | –
